# Data published in US20140322771A1, “Lipid Production” (THE UNIVERSITY OF QUEENSLAND, priority 2010, published 2014).
# “Also recorded” adds a separate entry of the source.
# Assays:
# [1] = test system: S. cerevisiae WT and sld mutant strains; assay: Formation of supersized lipid droplets (SLDs) in yeast, Nile red staining and fluorescence microscopy; assay type: cell-based, Saccharomyces cerevisiae
# Experimental: To screen for yeast mutants that generate supersized LDs, cells were cultured in synthetic complete media (0.67% yeast nitrogen base, 2% dextrose, and amino acids) in 96-well plates at 30° C. till stationary phase. For TetO7-regulated strains, 15 μg/ml doxycycline was added to repress specific genes. Cells were stained with 20 μg/ml Nile red for LDs and observed by fluorescence microscopy. Yeast strains found to contain SLDs were recultured in synthetic complete media with aeration in 10 ml culture tubes to confirm the phenotype. These strains were also grown in YPD media (1% yeast extract, 2% peptone, and 2% dextrose) to examine the morphology of LDs.
# For phospholipid precursor treatment, synthetic complete medium was supplemented with 1 mM choline, 1 mM ethanolamine, or 75 μM inositol.
# Fluorescent imaging was performed under a Leica CTR5500 microscope (Wetzlar, Germany) with an EL6000 fluorescent lamp. Images were taken with a DFC300 FX digital camera and a Leica LAS AF software. Yeast cells were viewed under a ×100/1.30 oil immersion objective lens. A 450-490-nm bandpass excitation filter, a 510 dichromatic mirror, and a 515-nm longpass emission filter (Leica filter cube I3) were chosen to observe Nile red-stained LDs. For statistical presentation of the percentage of cells containing supersized LDs, 200 cells were observed and percentage was calculated. The experiments were done in triplicates and the result was shown as mean±SD. Mammalian LDs were stained with Bodipy 493/503 (Invitrogen) and observed with a 470/40-nm bandpass excitation filter, a 500-nm dichromatic mirror, and a 525/50-nm bandpass emission filter (Leica filter cube GFP).
# [2] = test system: lipid droplets of S. cerevisiae mutant strains; assay: Lipidomic analysis of lipid droplets isolated from yeast (PE/PL and PL/TAG ratio); assay type: cell-based, Saccharomyces cerevisiae
# Experimental: Lipid droplets were isolated as described in Fei et al. (Fei et al., (2008), “Fld1p, a functional homologue of human seipin, regulates the size of lipid droplets in yeast”, J Cell Biol 180: 473-482).
# Lipids were extracted from zymolase-digested lyophilized yeast cells, isolated ER microsomes or lipid droplets. Briefly 900 μl ice-clod chlorofom:methanol (1:2) was added to samples. Mixtures were vigorously vortexed for 1 min, and incubated for 2 h in vacuum container with rotary shaking at 4° C. Then 400 μl ice-cold water and 300 μl chloroform were added, vortexed and incubated on ice for 1 min. After centrifugation at 12000 rpm for 3 min at 4° C., the lower organic phase was collected. Subsequently, 50 μl 1 M HCl and 500 μl chloroform were added to the remainder, vortexed, and incubated on ice for 3 min. The lower organic phase was also collected after centrifugation at 12000 rpm for 3 min at 4° C., and combined with the first extract. The extracted lipids were blown dry with nitrogen gas, and resuspended in solvent for mass spectrometry analysis.
# Lipidomic analysis, and quantitative measurement of neutral lipids via thin layer chromatography (TLC) were performed as described in Fei et al. (Fei et al., (2008), “Fld1p, a functional homologue of human seipin, regulates the size of lipid droplets in yeast”, J Cell Biol 180: 473-482) and Low et al. (Low et al., (2008), “Caspase-dependent and -independent lipotoxic cell-death pathways in fission yeast”, J Cell Sci 121: 2671-2684). TLC plates were developed in chloroform/methanol/water (65:25:4) to separate phospholipid species.
# [3] = test system: Chlamydomonas homologue of CDS1p (gene C—30067); assay: Lipid droplet accumulation in Chlamydomonas after RNAi knockdown of the CDS1p homologue (Nile red); assay type: cell-based; conditions: C. reinhardtii 21 gr transformed with hairpin RNAi construct, compared with wild type
# Experimental: A hairpin RNAi construct was made by using 1st-3rd exon of the Chlamydomonas homologue of CDS1p driven by LC8 promoter. The gene name of the homologue is C—30067. The LC8 promoter is from Chlamydomonas.
# This construct was transformed into Chlamydomonas using a glass-bead method. The selection marker for transformation was APHVIII, whose expression conferred resistant to paromomysin.
# The survival strains on agar plates were screened by using Nile Red staining. 1 ug/ml final concentration of Nile red was used.
# A Zeiss fluorescence microscope (Observer.Z1) with GFP filter was used for screening putative RNAi strains.
molecule,measurement,setting,value
CCCCCCCC/C=C\CCCCCCCC(=O)O [oleate],number of cells producing SLD,"[1]; pah1Δ cells, supplement 1 mM each (about 3% of cells without supplement)",no effect
O[C@H]1[C@H](O)[C@@H](O)[C@H](O)[C@@H](O)[C@H]1O [inositol],SLD formation,"[1]; all sld mutants, SC media supplemented with 75 μM inositol",reduced the SLD formation in all mutants; also recorded: significant reduction of SLD formation
same,biogenesis of supersized LDs,"[1]; ino4Δ cells, inositol addition, higher PE to PL ratio persisted",completely abolished the biogenesis of supersized LDs
same,phospholipid to TAG ratio of LDs,"[2]; cds1 or ino4Δ mutant, inositol supplementation",did not increase
NCCO [ethanolamine],SLD formation,"[1]; most of the mutants, SC media supplemented with 1 mM ethanolamine",enhanced SLD formation in most of the mutants
same,proportion of PE on lipid droplets,"[2]; fld1Δ and cds1 cells, SC medium with ethanolamine",significantly increased
same,PE to PL ratio of LDs,"[2]; ino4Δ cells, SC medium with ethanolamine",moderately increased
"CDS1 gene RNAi: hairpin RNAi construct of exons 1-3 of the Chlamydomonas CDS1p homologue (C—30067, SEQ ID NO: 41), LC8 promoter (nucleic acid, LC8 promoter; Hairpin RNAi construct targetting Chlamydomonas sp. CDS1p Homologue) DNA: ATGCGACCAAAACAACAAGCTCAGGTCACCGCCGCGGAGGACACCGCGTCGGAGCCGGAGCCGGAGCCCAAGCCCGTGGATCGAAAGTCGAGGCTCAGGTCCTTCCGCGTACGCACCATCTCCTCGGTCTTGCTCATCGGCGGGTTCATCGGCATCATTTGGGCGGGTCATGTGCCGCTTATGTTCTTCATCCTGCTACTCCAGTTCCTGGTGGCCCGGGAGCTCTTCCGCATCGCCTACATAGCGGAGAAGTCCAAACGCAGCC",lipid droplet accumulation,[3],accumulated lipid droplet drastically
